Source: ChEMBL document CHEMBL5143510, “Structure modification and biological evaluation of indole-chalcone derivatives as anti-tumor agents through dual targeting tubulin and TrxR” (Eur J Med Chem, 2022)
Active and inactive are the calls of the source. The calls are words filed in the database; no cut-off is given here.

Legend:
[1] = Selectivity ratio, ratio of IC50 for cytotoxicity against human HLF cells to IC50 for antiproliferative activity against human MHCC97H cells; format: toxicity, cell-based; conditions: HLF cells versus MHCC97H cells, read-out: Ratio IC50
Tubulin (Homo sapiens) [2] = molecular target: T1, Tubulin (Homo sapiens) (UniProt P68371+Q9H4B7+P0DPH7+P68366+Q13509+Q71U36+P04350+Q3ZCM7+P07437+P68363+Q9BQE3+Q6PEY2+Q13885+Q9BVA1+Q9BUF5); test: Inhibition of colchicine binding to tubulin (unknown origin) at 1.25 uM by competitive binding assay relative to control; format: protein-complex assay
Homo sapiens [3] = species on record: Homo sapiens; test: Inhibition of TrxR (unknown origin) assessed as alkylation of TrxR by measuring weak band intensity using BIAM as substrate at 10 to 40 uM preincubated for 2 hrs in presence of NADPH followed by substrate addition and measured after 30 mins by Western blot analysis; conditions: dose 10-40 µM, time 2.5 hrs
[4] = Toxicity in BALB/c mouse xenografted with human MHCC97H cells assessed as change in body weight at 30 mg/kg, ip administered every other day for 30 days; format: organism-based; conditions: in vivo, 720 h, time 30 day
[5] = Inhibition of TrxR (unknown origin) using DTNB as substrate incubated for 5 mins in presence of NADPH followed by substrate addition by microplate reader analysis; set-up: species or system Homo sapiens
Tubulin (Homo sapiens) [6] = molecular target: T1, Tubulin (Homo sapiens); test: Inhibition of colchicine binding to tubulin (unknown origin) at 0.312 uM by competitive binding assay relative to control; format: protein-complex assay
[7] = Resistance index, ratio of IC50 for antiproliferative activity against vincristine resistant human HCT-8/VCR cells to IC50 for antiproliferative activity against human HCT-8 cells; format: functional
Homo sapiens [8] = species on record: Homo sapiens; test: Irreversible inhibition of TrxR (unknown origin) using DTNB as substrate at 5 uM incubated for 2 hrs in presence of NADPH followed by substrate addition ultrafiltration based microplate reader analysis relative to control
[9] = Antiproliferative activity against vincristine resistant human HCT-8/VCR cells assessed as reduction in cell viability incubated for 48 hrs by MTT assay; format: functional, cell-based
MHCC97H [10] = test: Induction of cell cycle arrest in human MHCC97H cells assessed as increase in accumulation of cells at G2/M phase at 5 to 50 nM measured after 48 hrs by propidium iodide staining based flow cytometry; format: functional; conditions: dose 5-50 nM
[11] = Cytotoxicity against human HUVEC cells assessed as reduction in cell viability incubated for 48 hrs by MTT assay; format: toxicity, cell-based
[12] = Resistance index, ratio of IC50 for antiproliferative activity against paclitaxel resistant human A2780/PTX cells to IC50 for antiproliferative activity against human A2780 cells; format: functional
[13] = Resistance index, ratio of IC50 for antiproliferative activity against adriamycin resistant human MCF7/ADR cells to IC50 for antiproliferative activity against human MCF7 cells; format: functional
MHCC97H [14] = test: Induction of morphological changes in human MHCC97H cells assessed as loss of adherent property at 5 to 50 nM incubated for 48 hrs by phase contrast microscopic analysis; format: functional, cell-based; conditions: dose 5-50 nM
HUVEC = test: Induction of morphological changes in human HUVEC cells assessed as cell shrinkage at 50 nM incubated for 48 hrs by phase contrast microscopic analysis; format: toxicity, cell-based; conditions: 0.05 µM
[15] = Inhibition of TrxR in human MHCC97H cells using DTNB as substrate preincubated for 4 hrs in presence of NADPH followed by substrate addition by microplate reader analysis; format: cell-based
Tubulin = test: Inhibition of tubulin polymerization (unknown origin) assessed as decrease in fluorescence intensity incubated for 90 mins by DAPI staining based microplate reader analysis; format: protein-complex assay, Homo sapiens
A2780/PTX = test: Downregulation of TrxR in paclitaxel resistant human A2780/PTX cells at 10 to 50 nM incubated for 48 hrs by Western blot analysis; format: functional, cell-based; conditions: dose 10-50 nM
[16] = Selectivity ratio, ratio of IC50 for cytotoxicity against human L02 cells to IC50 for antiproliferative activity against human MHCC97H cells; format: toxicity, cell-based; conditions: L02 cells versus MHCC97H cells, read-out: Ratio IC50
HeLa = test: Antiproliferative activity against human HeLa cells assessed as reduction in cell viability incubated for 48 hrs by MTT assay; format: functional, cell-based
MHCC97H [17] = test: Induction of ROS production in human MHCC97H cells assessed as increase in accumulation ROS level at 5 to 50 nM incubated for 4 hrs by DCFH-DA staining based fluorescence microscopy; format: functional, cell-based; conditions: dose 5-50 nM
MHCC97H [18] = test: Induction of apoptosis in human MHCC97H cells assessed as increase in total apoptotic cells incubated for 24 to 48 hrs by Annexin V-FITC/PI staining based flow cytometry method; format: functional, cell-based; conditions: dose 5-50 nM, time 24-48 hrs, DDE = dose-dependent effect
[19] = Cytotoxicity against human MCF-10A cells assessed as reduction in cell viability incubated for 48 hrs by MTT assay; format: toxicity, cell-based
MHCC97H [20] = test: Induction of apoptosis in human MHCC97H cells assessed as upregulation of Bad expression measured after 24 to 48 hrs by Western blot analysis; format: functional, cell-based; conditions: dose 5-50 nM, time 24-48 hrs, DDE = dose-dependent effect
NCI/ADR-RES [21] = test: Antiproliferative activity against adriamycin resistant human MCF7/ADR cells assessed as reduction in cell viability incubated for 48 hrs by MTT assay; format: functional, cell-based
A549 = test: Antiproliferative activity against human A549 cells assessed as reduction in cell viability incubated for 48 hrs by MTT assay; format: functional, cell-based; conditions: A549, 48 h
Homo sapiens [22] = species on record: Homo sapiens; test: Irreversible inhibition of TrxR (unknown origin) using DTNB as substrate at 10 uM incubated for 2 hrs in presence of NADPH followed by substrate addition ultrafiltration based microplate reader analysis relative to control
MHCC97H [23] = test: Antiproliferative activity against human MHCC97H cells assessed as reduction in cell viability incubated for 48 hrs by MTT assay; format: functional, cell-based
MHCC97H [24] = test: Induction of apoptosis in human MHCC97H cells assessed as upregulation of Bax expression measured after 24 to 48 hrs by Western blot analysis; format: functional, cell-based; conditions: dose 5-50 nM, time 24-48 hrs, DDE = dose-dependent effect
HCT-8/VCR = test: Downregulation of TrxR in vincristine resistant human HCT-8/VCR cells at 10 to 50 nM incubated for 48 hrs by Western blot analysis; format: functional, cell-based; conditions: dose 10-50 nM
Homo sapiens [25] = species on record: Homo sapiens; test: Mixed type inhibition of TrxR (unknown origin) using various concentrations of DTNB as substrate at 1.875 to 15 uM preincubated for 15 mins followed by substrate addition by double reciprocal Lineweaver-Burk plot analysis; conditions: dose 1.875-15 µM
Tubulin (Homo sapiens) [26] = molecular target: T1, Tubulin (Homo sapiens); test: Disruption of microtubule network in human MHCC97H cells assessed as shrunken morphology at 5 to 50 nM incubated for 24 hrs by Hoechst 33342 staining based confocal microscopy; format: cell-based; conditions: dose 5-50 nM
MHCC97H [27] = test: Induction of apoptosis in human MHCC97H cells assessed as chromatin condensation at 5 to 50 nM incubated for 24 hrs by Hoechst 33342 staining based fluorescence microscopy; format: functional, cell-based; conditions: dose 5-50 nM
NCI/ADR-RES [28] = test: Downregulation of TrxR in adriamycin resistant human MCF7/ADR cells at 10 to 50 nM incubated for 48 hrs by Western blot analysis; format: functional, cell-based; conditions: dose 10-50 nM
Tubulin (Homo sapiens) [29] = molecular target: T1, Tubulin (Homo sapiens); test: Inhibition of colchicine binding to tubulin (unknown origin) at 0.156 uM by competitive binding assay relative to control; format: protein-complex assay
MHCC97H [30] = test: Antitumor activity against human MHCC97H cells xenografted in BALB/c mouse assessed as tumor volume at 30 mg/kg, ip administered every other day for 30 days; format: functional; conditions: time 30 day

inhibition (Tubulin (Homo sapiens) [2]): 56.5%
inhibition (Homo sapiens [3]): Active
IC50 [5]: 3730 nM
inhibition (Tubulin (Homo sapiens) [6]): 30.7%
inhibition (Homo sapiens [8]): 84%
IC50 [15]: 10200 nM
IC50 (Tubulin): 810 nM
IC50 (HeLa): 21 nM
IC50 (A549): 8 nM
inhibition (Homo sapiens [22]): 91.4%
inhibition (Homo sapiens [25]): Active
Activity (Tubulin (Homo sapiens) [26]): Active
inhibition (Tubulin (Homo sapiens) [29]): 24.9%
SMILES: COc1ccc2c(/C=C(\C)C(=O)c3cc(OC)c(OC)c([Se]C)c3)c[nH]c2c1
selectivity ratio [1]: 394
Activity [4]: Non-Toxic
Ratio IC50 [7]: 1.56
IC50 [9]: 45 nM
Activity (MHCC97H [10]): Active
IC50 at 48 h [11]: 56 nM
Ratio IC50 [12]: 1.11
Ratio IC50 [13]: 0.51
Activity (MHCC97H [14]): Active
Activity (HUVEC): Toxic
Activity (A2780/PTX): Active
selectivity ratio [16]: 66.3
Activity (MHCC97H [17]): Active
Activity (MHCC97H [18]): Dde
IC50 at 48 h [19]: 723 nM
Activity (MHCC97H [20]): Dde
IC50 (NCI/ADR-RES [21]): 18 nM
IC50 (MHCC97H [23]): 6 nM
Activity (MHCC97H [24]): Dde
Activity (HCT-8/VCR): Active
Activity (MHCC97H [27]): Active
Activity (NCI/ADR-RES [28]): Active
Activity (MHCC97H [30]): 419.7 mm3
